Laboratory results published in patent US20230392180A1, “MICROSCOPIC IMAGING AND ANALYSES OF EPIGENETIC LANDSCAPE” (Sanford Burnham Prebys Medical Discovery Institute, priority 2020, published 2023).
Where a name gives a salt, the structure may show the parent alone.

Experiments:
[1] = single report; cited from earlier work
[2] = cited from earlier work
GBM2 cells = assay: Sensitization to radiation or TMZ; assay type: cell-based, human; conditions: 200 uM, 4 days
Protocol: Sensitization to radiation or TMZ: Cells were plated at 1500 cells/well in 384-well optical bottom assay plates (PerkinElmer). Two sets of the experiment were prepared; DMSO (0.1%) was used for negative controls at 48 DMSO replicates per plate; 3 replicates (wells) were treated per compound. Cells in both sets were pre-treated with epigenetic compounds for 2 days prior to cytotoxic treatment. Cytotoxic treatment, either 200 uM temozolomide (TMZ, Sigma) or 1 Gy x-ray radiation (RS2000; RAD Source) was carried out for 4 days on single set (‘treatment set’); for TMZ treatment, DMSO control was given to the second set. A single radiation dose was given at day 3; TMZ was given twice at days 3 and 5 of the experiment. Cells were fixed, stained with DAPI, and scored using an automated microscope (Celigo; Nexcelom Bioscience). For each compound, fold change in cell number was calculated for both the “treatment set” (Drug+Cytotox) and the “control set” (Drug), compared to DMSO-treated wells in the control set. The effect of radiation or TMZ alone was calculated as fold reduction of DMSO-treated wells in the treatment set compared to DMSO-treated wells in the control set (Cytotox). The coefficient of drug interaction (CDI) was calculated as […]. […]

[3] = Exposure estimated from publicly available information; conditions: women, estimating 50-75 kg body weight
primary human fNPCs = assay: MIEL-EpiTox of ToxCast Phase I/II+elk library compounds; conditions: 10 μM, 72 h, H3K27ac and H3K27me3
Protocol: Cells were treated with test compounds, then fixed and immunolabeled for epigenetic marks. The pattern of marks within each nucleus was analyzed to create multivariate signatures or “fingerprints” of each perturbation. Since the technique analyzes texture features rather than intensities and morphologies, culturing and immunostaining artifacts are reduced. MIEL is related to “cell painting”, in which multivariate analysis of multiplexed biomarkers was used to classify protein localization, cell subpopulations, and drug mechanisms of action. The multiparametric signatures of the cells (centroids) were plotted in 2D via multidimensional scaling (MDS), and support vector machine (SVM) classification was used to establish borders to divide the epigenetic signatures into distinct classes. MIEL was employed to probe the presence of epitoxic compounds in the EPA ToxCast Phase I/II+elk library and examined the effects of 352 compounds on primary human fNPCs (Thermo-Fisher, #A15654). Cells were incubated with 10 μM compound for 72 h, labeled with fluorescence-tagged antibodies to H3K27ac and H3K27me3, and imaged on a Vala Sciences IC200 cytometer. Features were derived using Acapella (Perkin Elmer) high-content imaging and analysis software. SVM classification was conducted as previously described. […] The same criteria were applied to determine toxicity.

## Cc1sc2c(c1C)C(c1ccc(Cl)cc1)=N[C@@H](CC(=O)Nc1ccc(O)cc1)c1nnc(C)n1-2 [OTX015]
[1]
  interaction with TMZ: synergy
[2]; doses achieving biologically active levels
  toxicity in clinical trials: low toxicity
[2]; in vivo
  clinical benefits: no detectable clinical benefits

## Cn1nnc2c(C(N)=O)ncn2c1=O [TMZ, temozolomide]
GBM2 cells
  reduction in cell numbers: 50%

## C[C@@H]1C[C@H]2[C@@H]3CCC4=CC(=O)C=C[C@]4(C)[C@@]3(F)[C@@H](O)C[C@]2(C)[C@@]1(O)C(=O)COS(=O)(=O)O [dexamethasone sulfate]
[3]
  estimated concentrations reached following repeated administration: ~10 µM

## CCCCOC(=O)COc1ccc(Cl)cc1Cl [2,4-D 1-butyl ester]
Primary human fNPCs
  MIEL-EpiTox class (epitoxic, cytotoxic, inert): epitoxic hits producing the largest epigenetic perturbations
